Test results from PMC6438784 (Saudi Pharmaceutical Journal : SPJ, 2019).
Like-named read-outs stand apart in the source and are kept apart here.

Tests used:
CYP2C8 [1] = molecular target: T1, CYP2C8 (Homo sapiens, UniProt P10632); experiment: CYP2C8 inhibition in pooled HLM, pioglitazone to hydroxypioglitazone; format: in vitro ADME
T1 sequence (P10632 1-490): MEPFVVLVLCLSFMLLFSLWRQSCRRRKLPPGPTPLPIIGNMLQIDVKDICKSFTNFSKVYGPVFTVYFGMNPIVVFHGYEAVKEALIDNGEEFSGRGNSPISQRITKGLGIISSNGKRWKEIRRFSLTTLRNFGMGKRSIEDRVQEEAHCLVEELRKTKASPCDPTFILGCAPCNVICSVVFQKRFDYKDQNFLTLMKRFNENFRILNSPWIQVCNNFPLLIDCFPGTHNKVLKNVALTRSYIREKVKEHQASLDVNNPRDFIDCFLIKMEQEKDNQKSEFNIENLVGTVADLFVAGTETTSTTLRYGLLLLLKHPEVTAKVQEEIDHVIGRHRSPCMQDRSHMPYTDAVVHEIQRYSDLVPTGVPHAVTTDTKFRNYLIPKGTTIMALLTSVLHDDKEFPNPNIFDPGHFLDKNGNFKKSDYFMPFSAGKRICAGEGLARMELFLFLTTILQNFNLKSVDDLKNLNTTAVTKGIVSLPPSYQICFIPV

[2] = rats, ref Yeo et al., 2013, cited from earlier work
UGT1A8/10 = UGT1A8/10 inhibition in HIM, mycophenolic acid glucuronidation; format: in vitro ADME, human
[3] = ref Riche et al., 2013, cited from earlier work
UGT1A9 = molecular target: T2, UGT1A9 (Homo sapiens, UniProt O60656); experiment: UGT1A9 inhibition in HLM, mycophenolic acid glucuronidation; format: in vitro ADME
T2 sequence (O60656 26-530): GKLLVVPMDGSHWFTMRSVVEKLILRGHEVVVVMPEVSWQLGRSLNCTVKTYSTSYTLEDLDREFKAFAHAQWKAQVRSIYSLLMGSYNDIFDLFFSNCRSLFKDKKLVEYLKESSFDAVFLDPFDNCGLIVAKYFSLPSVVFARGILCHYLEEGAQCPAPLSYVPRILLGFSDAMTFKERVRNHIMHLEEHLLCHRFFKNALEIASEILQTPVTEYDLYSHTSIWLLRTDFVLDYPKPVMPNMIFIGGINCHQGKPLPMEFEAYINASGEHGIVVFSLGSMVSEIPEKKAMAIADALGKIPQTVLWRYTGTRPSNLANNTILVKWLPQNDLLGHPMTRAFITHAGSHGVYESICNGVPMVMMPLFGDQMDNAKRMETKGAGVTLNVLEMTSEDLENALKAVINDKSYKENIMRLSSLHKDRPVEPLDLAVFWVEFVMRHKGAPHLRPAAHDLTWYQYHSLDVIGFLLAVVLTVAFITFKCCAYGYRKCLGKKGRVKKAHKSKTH

CYP2C8 [4] = molecular target: T1, CYP2C8; experiment: CYP2C8 inhibition in pooled HLM, amodiaquine to desethylamodiaquine; format: in vitro ADME; details: for IC50: amodiaquine
UGT1A6 [5] = molecular target: T3, UGT1A6 (Homo sapiens, UniProt P19224); experiment: UGT1A6 inhibition in HLM, serotonin glucuronidation; format: in vitro ADME; details: for IC50: HLM
T3 sequence (P19224 27-532): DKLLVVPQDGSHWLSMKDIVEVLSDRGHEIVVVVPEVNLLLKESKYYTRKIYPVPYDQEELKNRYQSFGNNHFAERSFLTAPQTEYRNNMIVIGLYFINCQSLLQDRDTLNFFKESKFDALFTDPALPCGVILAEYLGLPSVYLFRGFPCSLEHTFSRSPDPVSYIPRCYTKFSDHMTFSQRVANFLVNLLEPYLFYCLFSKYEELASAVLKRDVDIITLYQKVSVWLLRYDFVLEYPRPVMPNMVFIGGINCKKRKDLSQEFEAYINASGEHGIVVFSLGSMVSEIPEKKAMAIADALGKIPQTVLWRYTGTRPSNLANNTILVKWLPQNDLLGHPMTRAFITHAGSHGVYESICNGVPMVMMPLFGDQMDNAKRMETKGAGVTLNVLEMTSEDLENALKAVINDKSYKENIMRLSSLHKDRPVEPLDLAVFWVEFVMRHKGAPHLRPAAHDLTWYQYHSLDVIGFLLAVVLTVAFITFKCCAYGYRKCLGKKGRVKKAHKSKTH

UGT1A1 = molecular target: T4, UGT1A1 (Homo sapiens, UniProt P22309); experiment: UGT1A1 inhibition in HLM, β-estradiol glucuronidation; format: in vitro ADME
T4 sequence (P22309 26-533): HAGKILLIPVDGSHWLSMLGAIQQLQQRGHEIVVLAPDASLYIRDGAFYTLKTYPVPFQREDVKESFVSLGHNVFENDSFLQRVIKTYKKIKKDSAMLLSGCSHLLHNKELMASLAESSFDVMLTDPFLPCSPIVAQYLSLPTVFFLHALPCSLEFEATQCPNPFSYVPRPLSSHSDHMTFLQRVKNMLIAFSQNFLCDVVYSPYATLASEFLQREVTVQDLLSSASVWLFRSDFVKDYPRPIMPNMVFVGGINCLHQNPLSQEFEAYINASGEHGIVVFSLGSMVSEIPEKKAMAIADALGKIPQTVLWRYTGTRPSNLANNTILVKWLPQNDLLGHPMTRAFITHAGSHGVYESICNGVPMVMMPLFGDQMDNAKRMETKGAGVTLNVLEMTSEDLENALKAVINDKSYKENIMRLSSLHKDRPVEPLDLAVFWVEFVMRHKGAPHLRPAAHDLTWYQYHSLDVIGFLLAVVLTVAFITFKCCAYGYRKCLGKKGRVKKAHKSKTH

[6] = rats; ref Kapetanovic et al., 2011; cited from earlier work
UGT1A6 [7] = details: UGT1A6 inhibition; ref Sridar et al., 2004; cited from earlier work
[8] = initial screening, RDI 250 mg / rough IC50

## COc1cc(/C=C/c2ccc(O)cc2)cc(OC)c1 [pterostilbene]
CYP2C8 [1]
  IC50: 17.9 ± 2.2 µM
[2]; fasting
  Decrease of bioavailability by fasting: ~55%
[2]; intravenous dose of 2.5 mg/kg
  Clearance: rapid
[2]; oral aqueous solution
  Bioavailability: 15%
UGT1A8/10; human, human intestinal microsomes, pH 7.4, probe mycophenolic acid (70 μM)
  IC50 at 30 min: 92.7 ± 18.4 µM
UGT1A8/10; initial screening
  VDI: 10.5 L
UGT1A8/10; [8]
  V/D index: 10.53 L/dose
[3]; 250 mg daily dose
  Effect on blood pressure: reduction in blood pressure
[3]; humans, 250 mg/day
  Safety of long term use: safe
UGT1A9
  IC50: > 100 µM
UGT1A9; human, human liver microsomes, pH 7.4, probe mycophenolic acid (240 μM)
  inhibition at 30 min: < 50%
UGT1A9; [8]
  V/D index: 3.89 L/dose
CYP2C8 [4]; Precise IC50, confirmatory experiment, HLM, mean ± SE
  IC50: 3.12 µM
CYP2C8 [4]; Rough IC50, initial screening, pooled HLM, desethylamodiaquine formation, mean ± standard error
  IC50: 26.9 ± 5.6 µM
CYP2C8 [4]; [8]
  V/D index: 36.30 L/dose
UGT1A6 [5]; Precise IC50, confirmatory experiment, serotonin, mean ± SE
  IC50: 15 µM
UGT1A6 [5]; Rough IC50, initial screening, serotonin glucuronide formation, mean ± standard error
  IC50: 26.7 ± 40.7 µM
UGT1A6 [5]; [8]
  V/D index: 36.50 L/dose
UGT1A1; Rough IC50, initial screening, HLM, β-estradiol
  IC50: > 500 µM
UGT1A1; human, human liver microsomes, pH 7.4, probe β-estradiol (25 μM)
  inhibition at 30 min: < 50%
UGT1A1; [8]
  V/D index: <2 L/dose

## Oc1ccc(/C=C/c2cc(O)cc(O)c2)cc1 [resveratrol]
[6]
  Bioavailability: 20%

## COc1cc(C2Oc3cc([C@H]4Oc5cc(O)cc(O)c5C(=O)[C@@H]4O)ccc3OC2CO)ccc1O (some centres unmarked) [Silybin]
UGT1A6 [7]
  IC50: 28 µM
